Results from patent US8709391B2, “Family of pain producing substances and methods to produce novel analgesic drugs” (Board of Regents of the University of Texas System, priority 2008, dated 2014).

Columns and labels:
[1] = biological target: T1, TRPV4 (Homo sapiens, UniProt Q9HBA0); test: [Ca2+]i in CHO cells expressing TRPV4; assay type: cell-based; conditions: screening against other heat-sensitive TRP channels
T1 construct: expressed in transfected cells; host or cells: CHO cells
From the text: (§1) The epoxy metabolite, 9,10 EpOME (also known as leukotoxin), is highly elevated in burn patients and is implicated in shock in these patients.
FIG. 13 depicts the effect of lipids, extracted from burned human skin samples, and then applied to CHO cells that expressed either TRPV1, TRPV2, TRPV3, TRPV4 or TRPA1, using real time calcium imaging. As shown, the extracts of the burned human skin activated TRPV1, TRPV3, TRPV4 and TRPA1, but not TRPV2.

[2] = system: rat TG neurons; test: patch clamp electrophysiology, heat (48° C.)-evoked inward current (Iheat) in rat TG neurons; assay type: cell-based; conditions: pretreatment, NDGA 30 uM, miconazole 100 uM
Experimental: FIGS. 5A-D depict that interventions reducing production or action of linoleic acid oxidation products results in decreased thermal pain. Whether heat-evoked activation of rat TG neurons is inhibited by interventions directed against linoleic acid metabolites was evaluated. […] Using patch clamp electrophysiology, the local application of a heat step (48° C.) produced a strong inward current (Iheat) in TG neurons. Pretreatment with NDGA produced ˜50% reduction (p<0.05) in Iheat. (FIG. 5B). In a similar patch clamp electrophysiology set up, pretreatment with miconazole (100 uM) produced more than 75% reduction (p<0.001) in Iheat (FIG. 5C). Whether intracellular immunoneutralization against 9-HODE and 13-HODE alters the responsiveness of sensory neurons to noxious heat was evaluated next. A solution containing both anti-9-HODE and anti-13-HODE antibodies (concentrations of 0.03-0.06 ug and 0.006-0.012 ug/patch pipette respectively) was delivered intracellularly via dialysis for 5 min prior to the application of a heat step (48° C.).

[3] = system: rats; test: thermal nociception in rats after intraplantar hindpaw (ipl) injection; assay type: in vivo, rat; conditions: 100 ug/paw ipl, 15 minute, ipsilateral hindpaw
Experimental: The intraplantar hindpaw (ipl) injection of NDGA, miconazole, and a combination of anti 9-HODE and anti-13-HODE was compared to morphine sulfate, a gold standard analgesic. […] The studies were performed in a separate groups of animals for each condition and by observers blinded to treatment allocation (all compounds at 100 ug/paw and antibodies were each 25 ug/paw) (FIG. 10).

[4] = system: rat TG neurons; test: heat-evoked (48° C.) iCGRP release from rat TG neurons; assay type: cell-based; conditions: NDGA 10 uM, indomethacin 2 uM, I-RTX 200 nM
[5] = system: TG neurons from WT mice; test: [Ca2+]i levels in cultured TG neurons from WT mice; assay type: cell-based, mouse; conditions: for [Ca2+]i response evoked in TG neurons / responding neurons / capsaicin-sensitive neurons: 100 μM
Experimental: (§2) FIGS. 1A-H depict that endogenous TRPV1 ligands are generated upon heat insult of mouse skin. The hypothesis of heat-evoked generation of endogenous TRPV1 ligand(s) was evaluated by harvesting mouse skin and then collecting superfusate samples after 20 min exposure to basal (37° C.=“control” skin) or noxious (48° C.=“heated” skin) temperatures. Aliquots of the two superfusates were applied, at room temperature, to cultured trigeminal ganglia (TG) neurons from wild type (WT) or TRPV1 knock out (TRPV1 KO) mice for measurement of evoked increases in intracellular calcium levels [Ca^2+]i. […] Conversely, there were no changes in [Ca^2+]i after application of supernatants from heated skin to either TRPV1 KO cultures (FIG. 1B; mustard oil served as a positive control) or to WT neurons insensitive to capsaicin (data not shown).
(§3) The pharmacological activity of synthetic 9-HODE and related compounds on sensory neurons was characterized. […] Another major metabolic pathway of linoleic acid leads to formation of 13-HODE and its metabolite, 13-oxoODE. The relative efficacy of these four compounds for evoked [Ca^2+]i levels was evident when tested in cultured neurons from WT mice (FIG. 3G) and in TRPV1-expressing CHO cells (FIG. 3H).
as §1
(§4) FIG. 12 depicts the effect of lipids extracted from burned human skin samples against cultured trigeminal sensory neurons from control (wild type, “WT”) mice and from TRPV1 knock-out mice. Samples of burned human skin and control (non-burned) human skin from patients undergoing treatment in a hospital burn ward were obtained. The lipids from the skin samples were extracted by incubation with acetonitrile and the samples dried under nitrogen gas. The samples were tested against cultured trigeminal sensory neurons from control (wild type, “WT”) mice and from TRPV1 knock-out mice using real time imaging of calcium accumulation (fura-2 method). Extracts from human control (non burned) skin had no effect on activating neurons from either control (WT) or TRPV1 knockout (TRPV1 KO) mice. […] Thus, similar to the oxidized linoleic acid metabolites, the extracts from burned human skin activate TRPV1 and some other channels.

[6] = system: TG neurons from TRPV1 KO mice; test: [Ca2+]i levels in cultured TG neurons from TRPV1 KO mice; assay type: cell-based, mouse
Experimental: as §2, §3, §1, §4

[7] = system: rats; test: intrathecal application, tactile allodynia in rats; assay type: in vivo, rat
From the text: FIGS. 9A-D depict that spinal injection (intrathecal) of capsaicin or 9-HODE into the spinal cord space results in tactile allodynia. This effect is mediated by activation of TRPV1 since it is blocked by a TRPV1 antagonist (AMG 9810). […] The results were compared with the results obtained with the positive control capsaicin. […] Comparison of the peak effect evoked by both capsaicin and 9-HODE is shown in FIGS. 9C-D. The effects were remarkably similar.

[8] = system: cultured rat TG neurons; test: CGRP release from cultured rat TG neurons evoked by 9-HODE; assay type: cell-based
[9] = system: WT mice; test: hindpaw intraplantar (ipl) injection, thermal allodynia, WT mice; assay type: in vivo, mouse
[10] = system: TRPV1 KO mice; test: hindpaw intraplantar (ipl) injection, thermal allodynia, TRPV1 KO mice; assay type: in vivo, mouse
[11] = system: rat trigeminal sensory neurons; test: linoleic acid activation of rat trigeminal sensory neurons, intracellular calcium (Fura-2); assay type: cell-based; conditions: pretreatment; for inhibition of the formation of linoleic acid metabolites (neuron-activating compounds): concluded from the neuron activation test
From the text: FIG. 14 depicts the effects of pretreatment with either cytochrome P450 inhibitors (NDGA, DPI, CO or ketoconazole, ODYA), nitric oxide synthase inhibitors (L-NAME, L-NNA), lipoxygenase inhibitors (BW-70C, PD, TEDC) or antioxidants (TROLOX, NAC, TEMPOL) versus negative controls (vehicle, argon) on the ability of linoleic acid to activate rat trigeminal sensory neurons as measured by real time levels of intracellular calcium (Fura-2, as indicated by the ratio of 340/380).

[12] = system: rat TG neurons; test: activation of rat TG neurons by compound(s) released from heated skin, pretreatment with TRPV1 antagonist; assay type: cell-based; conditions: I-RTX 200 nM pretreatment; superfusates from skin exposed to 48° C.
Experimental: To further characterize the TRPV1 specificity of these endogenous heat-generated compound(s), the effect of pretreatment with the TRPV1 antagonist iodo-resiniferatoxin (I-RTX) on the activation of rat TG neurons was evaluated. […] Moreover, application of these compound(s) triggered prompt increases in [Ca]i in CHO cells expressing TRPV1, but not in negative control CHO cells that expressed a GFP construct (FIGS. 1E-F). Next, initial superfusion experiments in isolated mouse skin were expanded by collecting supernatant after exposure to various temperatures and evaluating the release of endogenous TRPV1 compound(s).

T1 sequence (Q9HBA0 whole entry, species assumed): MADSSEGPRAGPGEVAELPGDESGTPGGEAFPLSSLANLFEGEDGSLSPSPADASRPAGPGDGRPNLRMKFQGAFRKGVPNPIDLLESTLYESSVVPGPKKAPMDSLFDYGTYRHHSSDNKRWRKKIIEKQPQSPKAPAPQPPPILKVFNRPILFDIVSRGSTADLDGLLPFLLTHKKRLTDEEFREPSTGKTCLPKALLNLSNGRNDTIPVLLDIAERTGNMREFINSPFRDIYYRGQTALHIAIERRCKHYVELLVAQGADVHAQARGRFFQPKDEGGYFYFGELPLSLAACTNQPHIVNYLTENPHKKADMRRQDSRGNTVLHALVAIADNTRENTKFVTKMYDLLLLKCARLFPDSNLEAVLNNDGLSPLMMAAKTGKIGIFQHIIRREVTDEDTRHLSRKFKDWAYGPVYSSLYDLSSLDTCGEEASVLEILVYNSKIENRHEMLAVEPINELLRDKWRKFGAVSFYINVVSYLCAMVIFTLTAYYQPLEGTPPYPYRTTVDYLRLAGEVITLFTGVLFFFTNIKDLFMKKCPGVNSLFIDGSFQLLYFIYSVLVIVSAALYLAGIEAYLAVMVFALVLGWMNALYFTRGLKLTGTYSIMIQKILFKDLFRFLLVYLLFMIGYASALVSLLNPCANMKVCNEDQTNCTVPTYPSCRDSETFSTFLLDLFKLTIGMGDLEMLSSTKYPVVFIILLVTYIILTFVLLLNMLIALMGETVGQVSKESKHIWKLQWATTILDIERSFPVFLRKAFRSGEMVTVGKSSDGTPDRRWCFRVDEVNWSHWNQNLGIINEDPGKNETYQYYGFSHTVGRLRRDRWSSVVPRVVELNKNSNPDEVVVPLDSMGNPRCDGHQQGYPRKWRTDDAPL

CCCCCC=CCC(O)C(O)CCCCCCCC(=O)O (stereo not shown) [9,10-DiHOME, 9(10)-dihydroxy-octadec-12-enoic acid]
TRPV4 agonist activity [1]: TRPV4 agonist

CC(Cc1ccc(O)c(O)c1)C(C)Cc1ccc(O)c(O)c1 (stereo not shown) [NDGA, Nordihydroguaiaretic Acid]
reduction in Iheat [2]: ~50%
thermal antinociception [3]: thermal antinociception far beyond that of the vehicle or morphine injected rats
reversal of heat-evoked iCGRP release by pretreatment [4]: partially reversed

CCCCC/C=C\C=C\C(=O)CCCCCCCC(=O)O [9-oxoODE, (10E,12Z)-9-oxooctadeca-10,12-dienoic acid]
[Ca2+]i levels after application ([5]; concentration not given): triggered increased [Ca^2+]i levels
[Ca2+]i levels after application ([6]; concentration not given): not in neurons from TRPV1 KO mice

COc1cc(CNC(=O)CCCC/C=C/C(C)C)ccc1O [capsaicin]
duration of tactile allodynia post injection ([7]; 5 ug intrathecal): 1 h
tactile allodynia evoked by intrathecal application ([7]; 5 ug intrathecal): evoked tactile allodynia

Clc1ccc(COC(Cn2ccnc2)c2ccc(Cl)cc2Cl)c(Cl)c1 (stereo not shown) [miconazole]
reduction in Iheat [2]: more than 75%
thermal antinociception [3]: thermal antinociception far beyond that of the vehicle or morphine injected rats

COc1ccc2c(c1)c(CC(=O)O)c(C)n2C(=O)c1ccc(Cl)cc1 [indomethacin]
reversal of heat-evoked iCGRP release by pretreatment [4]: not

CCCCC/C=C\C=C\C(O)CCCCCCCC(=O)O (stereo not shown) [9-HODE, 9-hydroxyoctadecadienoic acid]
concentration at which effects on CGRP release are evident [8]: 10 nM
EC50 ([8]; read-out: EC50 of increase in CGRP release): ~300 nM
thermal allodynia after ipl injection ([9]; blinded observers): significantly greater thermal allodynia
thermal allodynia after ipl injection ([10]; blinded observers): not in TRPV1 KO mice
[Ca2+]i response evoked in TG neurons [5]: robust response
responding neurons / capsaicin-sensitive neurons [5]: 75/75
tactile allodynia evoked by intrathecal application ([7]; 5 ug intrathecal): evoked tactile allodynia that was of similar magnitude and duration to that of capsaicin
magnitude of [Ca2+]i accumulation and its time course compared to WT neurons [6]: greatly reduced
responding neurons / tested neurons [6]: 3/66
tested neurons with a slight response [6]: 4%

CCCCC/C=C\CC1OC1CCCCCCCC(=O)O (stereo not shown) [9,10 EpOME, (12Z)-9,10-epoxyoctadecenoic acid]
thermal allodynia after ipl injection ([9]; 50 μg/ipl): evoked thermal allodynia
thermal allodynia after ipl injection ([10]; 50 μg/ipl): absent
[Ca2+]i response evoked in TG neurons [5]: evoked calcium accumulation only in capsaicin-sensitive neurons
responding neurons / capsaicin-sensitive neurons [5]: 58/58
responding neurons / tested neurons [6]: 0/58

CC(C)(C)c1ccc(/C=C/C(=O)Nc2ccc3c(c2)OCCO3)cc1 [AMG 9810]
reversal of 9-HODE-evoked tactile allodynia ([7]; AMG 9810 50 ug, 9-HODE 5 ug intrathecal): completely reversible
reversal of capsaicin-evoked tactile allodynia ([7]; AMG 9810 50 ug, capsaicin 5 ug intrathecal): completely reversible
effect alone on mechanical withdrawal thresholds ([7]; antagonist alone, intrathecal): Neither the vehicle nor AMG 9810 alone had any effect

CC(=O)N1CCN(c2ccc(OCC3COC(Cn4ccnc4)(c4ccc(Cl)cc4Cl)O3)cc2)CC1 (stereo not shown) [ketoconazole]
block of the ability of linoleic acid to activate pain neurons ([11]; Fura-2 ratio 340/380): completely blocked
inhibition of the formation of linoleic acid metabolites (neuron-activating compounds) [11]: inhibits the formation of linoleic acid metabolites

C=C(C)[C@]12C[C@@H](C)[C@@]34O[C@](Cc5ccccc5)(O[C@@H]1[C@@H]3C=C(COC(=O)Cc1cc(I)c(O)c(OC)c1)C[C@]1(O)C(=O)C(C)=C[C@@H]41)O2 [I-RTX, iodo-resiniferatoxin]
reversal of heat-evoked iCGRP release by pretreatment [4]: partially reversed
block of activation of neurons by compound(s) released from heated skin [12]: completely blocked

C#CCCCCCCCCCCCCCCCC(=O)O [ODYA, 17-Octadecynoic acid]
inhibition of the formation of linoleic acid metabolites (neuron-activating compounds) [11]: does not
